From paper PMC5584760, “Rational design of drug-like compounds targeting Mycobacterium marinum MelF protein” (PLoS ONE, 2017)
Converted amounts (≈) assume the structure as drawn. “And” between values parts separate entries of the source, which are not always exact repeats. Equal values may be shown once. Read-outs that look alike come from different tables or passages of the source.

Legend:
HeLa cells = experiment: MTT cytotoxicity assay; assay type: cell-based, Human; conditions: 20 h
Protocol: The MTT (3-(4, 5-dimethyl thiazol-2yl)-2, 5-diphenyl tetrazolium bromide) assay was employed to assess the cytotoxicity of the inhibitors. HeLa cells (Human cervical epithelial cells) were plated at a concentration of 1×10^5/well in 100 μL of minimal essential medium (MEM) supplemented with 10% heat-inactivated fetal bovine serum (FBS) in 96-well plates. After overnight incubation at 37°C in 5% CO2 incubator, media was removed and the inhibitors were added in 100 μL of MEM + 10% heat-inactivated FBS at 1X and 5 X MIC concentrations. After incubation for 20 h, the cells were washed thrice with warm MEM (without FBS) and 200 μL of MTT (5mg/mL) was added. The plates were further incubated for 4 h, followed by the addition of 50 μL of DMSO (solubilizing reagent) per well, mixed thoroughly by a micropipette and left for 45 s. Presence of viable cells was visualized by the development of purple color due to formation of formazan crystals. The OD values were read at 595 nm using DMSO as a blank. A standard graph was plotted between the concentration of inhibitors and the relative cell viability.
Cell viability (%) = Test OD /Control ODX 100

purified MelF = purified MelF (Mycobacterium marinum, UniProt Q5SDQ6); experiment: Ki determination by Dixon plots; assay type: biochemical; conditions: for Ki: Dixon plots, substrate 50, 100 and 150 μM; for type of inhibition (Dixon's plot): intersection of Dixon's plots
purified MelF, sequence (Q5SDQ6 entry or part of it): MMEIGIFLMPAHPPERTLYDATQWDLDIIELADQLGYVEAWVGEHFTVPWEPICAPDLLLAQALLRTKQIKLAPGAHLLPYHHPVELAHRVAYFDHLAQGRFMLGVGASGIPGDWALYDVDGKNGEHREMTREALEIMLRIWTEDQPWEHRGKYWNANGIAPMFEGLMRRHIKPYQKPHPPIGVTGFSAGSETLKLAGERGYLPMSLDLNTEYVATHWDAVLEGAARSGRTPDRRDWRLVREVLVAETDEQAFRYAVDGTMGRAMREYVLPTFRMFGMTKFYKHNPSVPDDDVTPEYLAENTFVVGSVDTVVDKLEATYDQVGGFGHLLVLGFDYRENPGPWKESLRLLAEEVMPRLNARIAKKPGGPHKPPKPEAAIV
Protocol: The enzyme activity was assayed by monitoring a decrease in absorption of NADH (nicotinamide adenine dinucleotide) at 340 nm (ε = 6.22 X 10^3 M^-1cm^-1) in 50 mM Tris-Cl, pH 7.4 at 25°C. The steady state kinetic measurements were performed in a 1-cm path length cuvette in a final volume of 1mL according to the method of Kendrew et al. with slight modifications. 300μM of NADH and 80μM of FAD (flavin adenine dinucleotide) were added and the assay was initiated with the addition of 100 μg (6.09× 10^−10 mole) of enzyme present in WCL/purified MelF. The reaction was followed at 25°C for 5 min. The FAD was kept in the dark to prevent photo-reduction. The specific activity of the enzyme was calculated as Units/mg = ΔA340/min/6.22×mg enzyme/ mL reaction mixture Where ΔA340 represents a change in absorbance of NADH at 340 nm.
Ki values were calculated using Dixon plots, where inverse of Vmax values were plotted against the inhibitor concentration using different substrate concentrations.

M. marinum [1] = experiment: MIC by resazurin microtiter plate assay (REMA); assay type: cell-based, M. marinum strain M; conditions: 48 h, ~5 X 10^6/well, median (range) of three independent experiments; for MIC: Mycobacterium marinum
M. marinum [2] = experiment: MBC by CFU assay; assay type: cell-based, M. marinum strain M; conditions: for MBC, M. marinum / MBC: CFU assay, 48 h, median (range) of three independent experiments; for MBC/MIC, M. marinum: ratio, bactericidal when ≤ 4; for MBC: Mycobacterium marinum
M. tuberculosis [3] = experiment: MBC by CFU assay; assay type: cell-based, M. tuberculosis H37Rv; conditions: for MBC, M. tuberculosis / MBC: CFU assay, 96 h, median (range) of three independent experiments; for MBC/MIC, M. tuberculosis: ratio, bactericidal when ≤ 4; for MBC: Mycobacterium tuberculosis
M. tuberculosis [4] = experiment: MIC by resazurin microtiter plate assay (REMA); assay type: cell-based, M. tuberculosis H37Rv; conditions: 96 h, ~5 X 10^6/well, median (range) of three independent experiments; for MIC: Mycobacterium tuberculosis
M. tuberculosis [5] = experiment: Resazurin drugs combination microtiter assay (RIF/INH + inhibitor); assay type: cell-based, M. tuberculosis H37Rv; conditions: for FICI in combination with INH, M. tuberculosis: synergistic inhibitory effect
M. tuberculosis [6] = experiment: MBC of combinations of drugs (RIF/INH) and inhibitors; assay type: cell-based, M. tuberculosis H37Rv; conditions: for bactericidal effect in combination with RIF against M. tuberculosis: compared with RIF alone
M. marinum [7] = experiment: Resazurin drugs combination microtiter assay (RIF/INH + inhibitor); assay type: cell-based, M. marinum strain M; conditions: for FICI in combination with INH, M. marinum: synergistic inhibitory effect
[8] = at both 1X and 5X MIC concentrations

Compound | cytotoxicity in HeLa cells (HeLa cells; [8]) | Ki (purified MelF; read-out: Ki) | type of inhibition (Dixon's plot) (purified MelF) | MIC, M. marinum (M. marinum [1]) | MBC, M. marinum (M. marinum [2]) | MBC/MIC, M. marinum (M. marinum [2]) | MBC, M. tuberculosis (M. tuberculosis [3]) | MBC/MIC, M. tuberculosis (M. tuberculosis [3]) | MIC, M. tuberculosis (M. tuberculosis [4]) | Ki (purified MelF; Ki) | MIC (M. marinum [1]) [µM] | MBC (M. marinum [2]) [µM] | MBC (M. tuberculosis [3]) [µM] | MIC (M. tuberculosis [4]) [µM] | FICI in combination with INH, M. tuberculosis (M. tuberculosis [5]) | also measured
N~1~,N~1~-diethyl-N~4~-{6-methoxy-2-[2-(4-nitrophenyl)vinyl]-4-quinolinyl}-1,4-pentanediamine [compound 5255829] | not cytotoxic | 9 µM | competitive inhibition | 9.57–19.39 μM and 16.30 (8.15–16.30) μM | 32.68 (32.68) μM | 2 | 32.68 (32.68) μM | 1 | 32.68–38.77 μM and 32.68 (32.68) μM |  |  |  |  |  |  | 
CCC(C)c1ccc(OCCSc2nc3ccccc3[nH]2)cc1 (centres unmarked) [compound 6492687, 2-{[2-(4-sec-butylphenoxy)ethyl]thio}-1H-benzimidazole] | cytotoxic |  | competitive inhibition | 9.57 (9.57) μM |  | 4 |  | 1 | 38.28 (19.14–38.28) μM | 25 µM and 24 µM | 9.57 to 19.4 (≈ 3.12 to 6.33 µg/mL) | 38.3 (≈ 12.5 µg/mL) | 38.3 (≈ 12.5 µg/mL) | 32.7 to 38.8 (≈ 10.7 to 12.7 µg/mL) | 0.257–0.263 | 
CC(C)COc1ccc(-c2nn(-c3ccccc3)cc2CO)cc1 [compound 5175552, [3-(4-isobutoxyphenyl)-1-phenyl-1H-pyrazol-4-yl]methanol] | not cytotoxic |  | competitive inhibition | 3.38 (3.38) μM | 6.76 (6.76) μM | 2 | 27.02 (13.51–27.02) μM | 2 | 13.51 (13.51–27.02) μM | 68 µM | 3.38 (≈ 1.09 µg/mL) | 6.76 (≈ 2.18 µg/mL) | 27 (≈ 8.71 µg/mL) | 13.5 (≈ 4.36 µg/mL) | 0.257–0.263 | MBC/MIC ratio in combination with RIF, M. tuberculosis (M. tuberculosis [6]): 1; bactericidal effect in combination with RIF against M. tuberculosis (M. tuberculosis [6]): enhanced bactericidal effect; combined effect with INH against M. tuberculosis (M. tuberculosis [5]; in combination with INH): synergistic inhibitory effect
NNC(=O)c1ccncc1 [INH, Isoniazid, reference compound] |  |  |  |  |  | 1 |  | 1 |  |  | 4.53 (≈ 0.621 µg/mL) | 4.53 (≈ 0.621 µg/mL) | 2.27 (≈ 0.311 µg/mL) | 2.27 (≈ 0.311 µg/mL) |  | 
2,2'-[3-(3-methoxyphenyl)-1,2-propanediyl]bis-1H-benzimidazole [compound 9125618] |  | 24 µM and 25 µM | noncompetitive inhibition | 9.57–19.39 μM and 18.80 (9.40–18.80) μM | 37.61 (37.61) μM | 2 | 37.61 (37.61) μM | 1 | 32.68–38.77 μM and 37.61 (18.80–37.61) μM |  |  |  |  |  |  | cytotoxicity in HeLa cells (HeLa cells; 5X MIC concentration): ~ 18%; bactericidal effect in combination with RIF against M. tuberculosis (M. tuberculosis [6]): enhanced bactericidal effect
CO[C@H]1/C=C/O[C@@]2(C)Oc3c(C)c(O)c4c(O)c(c(/C=N/N5CCN(C)CC5)c(O)c4c3C2=O)NC(=O)/C(C)=C\C=C\[C@H](C)[C@H](O)[C@@H](C)[C@@H](O)[C@@H](C)[C@H](OC(C)=O)[C@@H]1C [RIF, Rifampicin, reference compound] |  |  |  |  |  | 2 |  | 2 |  |  | 0.475 (≈ 0.391 µg/mL) | 0.95 (≈ 0.782 µg/mL) | 0.095 (≈ 0.0782 µg/mL) | 0.048 (≈ 0.0395 µg/mL) |  | 
2-{[(2-methyl-6-phenyl-4-pyrimidinyl)thio]methyl}-1H-benzimidazole [compound 6513745] | not cytotoxic | 18 µM | noncompetitive inhibition |  | 38.77 (19.39–38.77) μM | 2 | 38.77 (19.39–38.77) μM | 1 | 32.68–38.77 μM and 38.77 (19.39–38.77) μM |  |  |  |  |  |  | combined effect with INH against M. marinum (M. marinum [7]; in combination with INH): synergistic inhibitory effect; FICI in combination with INH, M. marinum (M. marinum [7]): 0.276
c1ccc(CC(Cc2nc3ccccc3[nH]2)c2nc3ccccc3[nH]2)cc1 (centres unmarked) [compound 5255825, 2,2'-(3-phenyl-1,2-propanediyl)bis-1H-benzimidazole] | cytotoxic |  | competitive inhibition | 17.74 (8.87–17.74) μM |  | 2 |  | 1 | 35.47 (17.74–35.47) μM | 4 µM | 9.57 to 19.4 (≈ 3.37 to 6.83 µg/mL) | 35.5 (≈ 12.5 µg/mL) | 35.5 (≈ 12.5 µg/mL) | 32.7 to 38.8 (≈ 11.5 to 13.7 µg/mL) | 0.257–0.263 | FICI in combination with INH, M. marinum (M. marinum [7]): 0.276
